Measured values reported in patent US5563172A, “Macrocyclic amide and urea immunomodulators” (Abbott Laboratories, priority 1994, dated 1996).

Tested on: human mixed lymphocyte reaction (MLR)
Test: human mixed lymphocyte reaction (MLR) assay, immunosuppressant activity
Assay type: cell-based
Settings: Table 1
Experimental: The immunosuppressant activity of the compounds of the present invention was determined using the human mixed lymphocyte reaction (MLR) assay described by Kino, T. et al. in Transplantation Proceedings, XIX(5):36-39,Suppl. 6 (1987).

Structure (SMILES) | IC50 [nM]
CCC1C=C(C)CC(C)CC(OC)C2OC(O)(C(=O)C(=O)N3CCCCC3C(=O)OC(C(C)=CC3CCC(OCNC(=O)Nc4ccccc4)C(OC)C3)C(C)C(O)CC1=O)C(C)CC2OC (centres unmarked) [Example 112] | 0.1
CCC1C=C(C)CC(C)CC(OC)C2OC(O)(C(=O)C(=O)N3CCCCC3C(=O)OC(C(C)=CC3CCC(OCC(=O)NCCCO)C(OC)C3)C(C)C(O)CC1=O)C(C)CC2OC (centres unmarked) [Example 31] | 1.1
CCC1C=C(C)CC(C)CC(OC)C2OC(O)(C(=O)C(=O)N3CCCCC3C(=O)OC(C(C)=CC3CCC(OCC(=O)NCC(=O)O)C(OC)C3)C(C)C(O)CC1=O)C(C)CC2OC (centres unmarked) [Example 39] | 173
CCC1C=C(C)CC(C)CC(OC)C2OC(O)(C(=O)C(=O)N3CCCCC3C(=O)OC(C(C)=CC3CCC(OCC(=O)Nc4cccnc4)C(OC)C3)C(C)C(O)CC1=O)C(C)CC2OC (centres unmarked) [Example 57] | 0.1
CCC1C=C(C)CC(C)CC(OC)C2OC(O)(C(=O)C(=O)N3CCCCC3C(=O)OC(C(C)=CC3CCC(OCC(=O)Nc4cccc(O)c4)C(OC)C3)C(C)C(O)CC1=O)C(C)CC2OC (centres unmarked) [Example 73] | 0.04
CCC1C=C(C)CC(C)CC(OC)C2OC(O)(C(=O)C(=O)N3CCCCC3C(=O)OC(C(C)=CC3CCC(OCC(=O)NNC(=O)c4ccncc4)C(OC)C3)C(C)C(O)CC1=O)C(C)CC2OC (centres unmarked) [Example 71] | 0.1
CCC1C=C(C)CC(C)CC(OC)C2OC(O)(C(=O)C(=O)N3CCCCC3C(=O)OC(C(C)=CC3CCC(OCC(=O)NCCCN(C)C)C(OC)C3)C(C)C(O)CC1=O)C(C)CC2OC (centres unmarked) [Example 89] | 0.5
CCC1C=C(C)CC(C)CC(OC)C2OC(O)(C(=O)C(=O)N3CCCCC3C(=O)OC(C(C)=CC3CCC(OCNC(=O)N4CCOCC4)C(OC)C3)C(C)C(O)CC1=O)C(C)CC2OC (centres unmarked) [Example 111] | 1.8
CCC1C=C(C)CC(C)CC(OC)C2OC(O)(C(=O)C(=O)N3CCCCC3C(=O)OC(C(C)=CC3CCC(OCC(=O)OCc4ccccc4)C(OC)C3)C(C)C(O)CC1=O)C(C)CC2OC (centres unmarked) [Example 2] | 7.6
CCC1C=C(C)CC(C)CC(OC)C2OC(O)(C(=O)C(=O)N3CCCCC3C(=O)OC(C(C)=CC3CCC(OCC(=O)NCc4ccccc4)C(OC)C3)C(C)C(O)CC1=O)C(C)CC2OC (centres unmarked) [Example 4] | 0.5
CCC1C=C(C)CC(C)CC(OC)C2OC(O)(C(=O)C(=O)N3CCCCC3C(=O)OC(C(C)=CC3CCC(OCC(=O)Nc4cccc(F)c4)C(OC)C3)C(C)C(O)CC1=O)C(C)CC2OC (centres unmarked) [Example 72] | 0.08
CCC1C=C(C)CC(C)CC(OC)C2OC(O)(C(=O)C(=O)N3CCCCC3C(=O)OC(C(C)=CC3CCC(OCC(=O)NCCc4ccccc4)C(OC)C3)C(C)C(O)CC1=O)C(C)CC2OC (centres unmarked) [Example 82] | 0.3
CCC1C=C(C)CC(C)CC(OC)C2OC(O)(C(=O)C(=O)N3CCCCC3C(=O)OC(C(C)=CC3CCC(OCC(=O)O)C(OC)C3)C(C)C(O)CC1=O)C(C)CC2OC (centres unmarked) [Example 3] | 140
CCOC(=O)COC1CCC(C=C(C)C2OC(=O)C3CCCCN3C(=O)C(=O)C3(O)OC(C(OC)CC(C)CC(C)=CC(CC)C(=O)CC(O)C2C)C(OC)CC3C)CC1OC (centres unmarked) [Example 1] | 0.9
CCC1C=C(C)CC(C)CC(OC)C2OC(O)(C(=O)C(=O)N3CCCCC3C(=O)OC(C(C)=CC3CCC(OCC(=O)NN4CCOCC4)C(OC)C3)C(C)C(O)CC1=O)C(C)CC2OC (centres unmarked) [Example 51] | 0.3
CCC1C=C(C)CC(C)CC(OC)C2OC(O)(C(=O)C(=O)N3CCCCC3C(=O)OC(C(C)=CC3CCC(OCC(=O)Nc4ccc(C(F)(F)F)cc4)C(OC)C3)C(C)C(O)CC1=O)C(C)CC2OC (centres unmarked) [Example 53] | 0.2
CCC1C=C(C)CC(C)CC(OC)C2OC(O)(C(=O)C(=O)N3CCCCC3C(=O)OC(C(C)=CC3CCC(OCC(=O)Nc4ccncc4)C(OC)C3)C(C)C(O)CC1=O)C(C)CC2OC (centres unmarked) [Example 58] | 0.15
CCC1C=C(C)CC(C)CC(OC)C2OC(O)(C(=O)C(=O)N3CCCCC3C(=O)OC(C(C)=CC3CCC(OCC(=O)Nc4ccc(F)cc4)C(OC)C3)C(C)C(O)CC1=O)C(C)CC2OC (centres unmarked) [Example 54] | 0.02
CCC1C=C(C)CC(C)CC(OC)C2OC(O)(C(=O)C(=O)N3CCCCC3C(=O)OC(C(C)=CC3CCC(OCC(=O)N4CCN(C)CC4)C(OC)C3)C(C)C(O)CC1=O)C(C)CC2OC (centres unmarked) [Example 74] | 0.06
CCC1C=C(C)CC(C)CC(OC)C2OC(O)(C(=O)C(=O)N3CCCCC3C(=O)OC(C(C)=CC3CCC(OCC(=O)N(C)CCc4ccccc4)C(OC)C3)C(C)C(O)CC1=O)C(C)CC2OC (centres unmarked) [Example 83] | 0.4
CCC1C=C(C)CC(C)CC(OC)C2OC(O)(C(=O)C(=O)N3CCCCC3C(=O)OC(C(C)=CC3CCC(OCC(=O)NCCN(C)C)C(OC)C3)C(C)C(O)CC1=O)C(C)CC2OC (centres unmarked) [Example 88] | 0.1
CCC1C=C(C)CC(C)CC(OC)C2OC(O)(C(=O)C(=O)N3CCCCC3C(=O)OC(C(C)=CC3CCC(OCC(=O)NCCCN4CCOCC4)C(OC)C3)C(C)C(O)CC1=O)C(C)CC2OC (centres unmarked) [Example 87] | 1.1
CCC1C=C(C)CC(C)CC(OC)C2OC(O)(C(=O)C(=O)N3CCCCC3C(=O)OC(C(C)=CC3CCC(OCC(=O)Nc4ccccc4)C(OC)C3)C(C)C(O)CC1=O)C(C)CC2OC (centres unmarked) [Example 85] | 0.5
CCC1C=C(C)CC(C)CC(OC)C2OC(O)(C(=O)C(=O)N3CCCCC3C(=O)OC(C(C)=CC3CCC(OCC(N)=O)C(OC)C3)C(C)C(O)CC1=O)C(C)CC2OC (centres unmarked) [Example 6] | 0.1
CCC1C=C(C)CC(C)CC(OC)C2OC(O)(C(=O)C(=O)N3CCCCC3C(=O)OC(C(C)=CC3CCC(OCC(=O)Nc4ccccn4)C(OC)C3)C(C)C(O)CC1=O)C(C)CC2OC (centres unmarked) [Example 59] | 0.05
CCC1C=C(C)CC(C)CC(OC)C2OC(O)(C(=O)C(=O)N3CCCCC3C(=O)OC(C(C)=CC3CCC(OCC(=O)N4CCOCC4)C(OC)C3)C(C)C(O)CC1=O)C(C)CC2OC (centres unmarked) [Example 29] | 0.7
